US12528837B2, “Aryl substituted polymyxin derivatives” (priority 2018, dated 2026)

Columns and labels:
HK-2 cells = assay: In vitro renal cell toxicity assay (HK-2); format: cell-based
In short: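 HK-2 cells seeded 7,500/well, adhered overnight, then exposed to compound for 24 h at 37° C, 5% CO2, with 5% water and 0.5% DMSO. Background-subtracted, vehicle-normalised dose-response fitted with bottom fixed at zero; IC50 reported relative to PMB in the same run, median where repeated.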

[1] = Kidney drug level after subcutaneous dose in mouse; format: in vivo; conditions: mouse, in vivo, sc, 17.2 mg/kg
In short: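 Mice were euthanised four hours after subcutaneous dosing. Both kidneys were trimmed, weighed, snap-frozen, then homogenised with zirconium oxide beads. After centrifugation (13,000 rpm, 6 °C, 10 min), supernatants were analysed by LC-MS-MS.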

[2] = Renal toxicity in mice, 25 mg/kg sc four doses at 8 hr intervals, biomarkers and histopathology; format: in vivo, mouse; conditions: mice (n=6), sc 25 mg free base/kg
Description: (§1) After the fourth dose animals were transferred into individual metabolic cages and urine collected for 24 hours for determination of urinary biomarkers. After collecting urine mice were euthanised and the kidneys harvested for histopathology.

[3] = Renal toxicity in mice, separate experiment Example 17 vs PMB; format: in vivo, mouse; conditions: sc 25 mg free base/kg, four doses at 8 hr intervals
Description: as §1
In a separate experiment Example 17 was compared with PMB.

[4] = Renal toxicity in Cynomolgus monkey, iv infusion 7 days; format: in vivo
Description: In a separate experiment male monkeys (n=3) were dosed with PMB for the same period at 4 mg/kg/dose. In both experiments control animals were dosed 3 times per day with saline.
At the end of the 7 day period blood was sampled and the serum levels of blood urea nitrogen and creatinine determined as indicators of renal damage.
Kidneys were harvested at the end of the 7 day dosing period and examined microscopically.

K. pneumoniae ATCC 43816 = assay: Neutropenic murine thigh model; format: in vivo; conditions: CD-1 mice thigh, counts at 16 h, PMB in parentheses
Description: After rendering neutropenic (cyclophosphamide 150 mg/kg d-4, 100 mg/kg d-1), CD-1 mice (n=5) were inoculated in each thigh with approx. 10^5 cfu of K. pneumoniae ATCC43816. Mice were dosed IV with appropriate doses of PMB sulphate or test compound (equivalent weight free base) at 2, 6 and 10 h post-infection. At 16 h post-infection mice were euthanised and thighs prepared for colony counts.
(§2) In each case the decrease observed with PMB in the same experiment is shown in parentheses: […]

P. aeruginosa ATCC 27853 [5] = assay: Neutropenic murine lung model; format: in vivo; conditions: CD-1 mice lung, counts at 16 h, PMB in parentheses
Description: After rendering neutropenic (cyclophosphamide 200 mg/kg d-4, 150 mg/kg d-1). CD-1 mice (n=8) were inoculated intranasally with 10^4-10^5 cfu per lung of P. aeruginosa ATCC27853. Mice were dosed SC with appropriate doses of PMB sulphate or test compound (equivalent weight free base) at 2, 6 and 10 h post-infection. At 16 h post-infection mice were euthanised and lungs prepared for colony counts.
as §2

E. coli ATCC 25922 = assay: MIC alone and with rifampicin, broth microdilution CLSI; format: cell-based; conditions: alone
Description: (§3) MIC values (μg/mL) were determined by broth microdilution under CLSI conditions.

K. pneumoniae ATCC 13882 = assay: as above; format: cell-based; conditions: alone
Description: as §3

A. baumannii IHMA 517303 = format: cell-based; conditions: alone
Description: as §3

[6] = tested on: A. baumannii IHMA 851735 (OXA-23); format: cell-based; conditions: OXA-23; alone
Description: as §3

[7] = tested on: A. baumannii NCTC 13301 (OXA-23); format: cell-based; conditions: OXA-23; alone
Description: as §3

E. coli CDF-1 (MCR-1) = format: cell-based; conditions: MCR-1; alone
Description: as §3

E. coli IHMA 940398 = format: cell-based; conditions: alone
Description: as §3

[8] = tested on: K. pneumoniae IHMA 520329 (SHV-12, KPC-2); format: cell-based; conditions: SHV-12, KPC-2; alone
Description: as §3

[9] = tested on: K. pneumoniae IHMA 580884; format: cell-based; conditions: alone
Description: as §3

P. aeruginosa ATCC 27853 [10] = format: cell-based; conditions: alone
Description: as §3

[11] = tested on: P. aeruginosa IHMA 517175; format: cell-based; conditions: alone
Description: as §3

[12] = tested on: P. aeruginosa IHMA 644636; format: cell-based; conditions: alone
Description: as §3

[13] = Renal toxicity of Example 24 vs PMB after four doses in mouse; format: in vivo, mouse; conditions: for Urine β-2 microglobulin: CD-1 mice, urine 24 h, normalized to urinary creatinine, mean
Description: Immediately after the fourth dose mice were transferred to metabolic cages and urine collected for 24 h. for determination of urinary biomarkers. After urine collection mice were sacrificed for renal histopathology.
The urine biomarkers were normalized to urinary creatinine.

[14] = tested on: E. coli, K. pneumoniae, P. aeruginosa, A. baumannii strains; assay: Synergy with rifampicin across the MIC panel; format: cell-based; conditions: also against strains with reduced susceptibility to polymyxins
Description: as §3

[15] = cynomolgus monkey, in vivo, 4 mg/kg

With Polymyxin B [reference compound] the “Cytotoxicity (measured IC50 relative to that recorded for Polymyxin B)” value (HK-2 cells) was 1.0, the Drug Level in Kidney 4 h [1] was 128 µg/g kidney and the Drug Level in Kidney 16 h [1] was 18 µg/g kidney. The “Kidney histopathology: signs of degeneration or regeneration” value [2] was “all 6 animals treated with PMB showed minimal tubular regeneration”, the “Basophilic tubules (histopathology)” value ([3]; animals per grade) was 4 minimal/1 mild and the “Tubular degeneration/necrosis (histopathology)” value ([3]; animals per grade) was 4 normal/1 minimal. For the same substance, the “Albumin, elevation compared with vehicle control” value ([3]; urine) was 29×, the “Cystatin C, elevation compared with vehicle control” value ([3]; urine) was 2× and the “KIM-1, elevation compared with vehicle control” value ([3]; urine) was 771×. The “Kidney microscopy: tubular degeneration” value ([4]; Cynomolgus monkey (n=3), 4 mg/kg/dose, 3 times per day, 7 days) was 2 showed mild tubular degeneration and 1 minimal, the “AUC0-8 hr, one dosing cycle on day 7” value [4, 15] was 117 µg·h/mL and the “BUN elevation compared to control animals” value [4, 15] was 76%. The “Log drop in cfu Compared to Vehicle Control” value (K. pneumoniae ATCC 43816; IV 0.25 mg/kg at 2, 6, 10 h) was 0.2 (0.2), the “Log drop in cfu Compared to Vehicle Control” value (K. pneumoniae ATCC 43816; IV 1 mg/kg at 2, 6, 10 h) was 5.2 and the “Log drop in cfu Compared to Vehicle Control” value (K. pneumoniae ATCC 43816; IV 2 mg/kg at 2, 6, 10 h) was 4.0. The “Log drop in cfu Compared to Vehicle Control” value (K. pneumoniae ATCC 43816; IV 4 mg/kg at 2, 6, 10 h) was 5.6, the “Log drop in cfu Compared to Vehicle Control” value (K. pneumoniae ATCC 43816; IV […] at 2, 6, 10 h) was 0.2 and the “Log drop in cfu Compared to Vehicle Control” value (P. aeruginosa ATCC 27853 [5]; SC 5 mg/kg at 2, 6, 10 h) was 0 (0). The “Log drop in cfu Compared to Vehicle Control” value (P. aeruginosa ATCC 27853 [5]; SC 7.5 mg/kg at 2, 6, 10 h) was 1.0, the “Log drop in cfu Compared to Vehicle Control” value (P. aeruginosa ATCC 27853 [5]; SC 10 mg/kg at 2, 6, 10 h) was 0.7 and the “MIC E. coli ATCC 25922” value (E. coli ATCC 25922) was 0.25 µg/mL. For the same substance, the “MIC K. pneumoniae ATCC 13882” value (K. pneumoniae ATCC 13882) was 0.25 µg/mL, the “MIC A. baumannii IHMA 517303” value (A. baumannii IHMA 517303) was greater than 64 µg/mL and the “MIC A. baumannii IHMA 851735” value [6] was 8 µg/mL. The “MIC A. baumannii NCTC 13301” value [7] was 0.25 µg/mL, the “MIC E. coli CDF-1” value (E. coli CDF-1 (MCR-1)) was 4 µg/mL and the “MIC E. coli IHMA 940398” value (E. coli IHMA 940398) was 16 µg/mL. The “MIC K. pneumoniae IHMA 520329” value [8] was 64 µg/mL, the “MIC K. pneumoniae IHMA 580884” value [9] was 8 µg/mL and the “MIC P. aeruginosa ATCC 27853” value (P. aeruginosa ATCC 27853 [10]) was 0.5 µg/mL. For the same substance, the “MIC P. aeruginosa IHMA 517175” value [11] was 8 µg/mL, the “MIC P. aeruginosa IHMA 644636” value [12] was 32 µg/mL and the “Tubular Degeneration/necrosis (histopathology, animals affected)” value ([13]; CD-1 mice (n=5), sc 25 mg/kg four times at 8 h intervals) was 5/5 (2 min/. The “Urine β-2 microglobulin” value ([13]; sc 25 mg/kg four times at 8 h intervals) was 43.83, the “Urine β-2 microglobulin” value ([13]; sc […] four times at 8 h intervals) was 3.43 and the “Basophilic Tubules (cortex) (animals affected)” value ([13]; mouse, in vivo, sc, 25 mg/kg) was 5/5 (1 min/. The “Mitotic Figures increased (animals affected)” value ([13]; mouse, in vivo, sc, 25 mg/kg) was 3/5, the “Urine Albumin” value ([13]; mouse, in vivo, sc, 25 mg/kg) was 7.73 and the “Urine Cystatin C” value ([13]; mouse, in vivo, sc, 25 mg/kg) was 44.51. For the same substance, the “Urine Kim-1” value ([13]; mouse, in vivo, sc, 25 mg/kg) was 3,446.42, the “Urine NGAL” value ([13]; mouse, in vivo, sc, 25 mg/kg) was 4.37 and the “Synergy with rifampicin (in words)” value [14] was “strong synergy with rifampicin”.
